Patent US20190069548A1, “AGENT FOR CONTROLLING THRIPS AND USE THEREOF” (RIKEN, priority 2016, published 2019)

Columns and labels:
Format in all cases: in vivo
[1] = test system: Frankliniella occidentalis; test: Two-plant choice test of thrips repellency after spraying (Examples 1 and 2); conditions: for repellency against thrips (number of thrips on plant vs water control): 100 μM solution sprayed; for repellency against thrips (number of thrips on plant vs water control) / repellency against Frankliniella occidentalis: thrips released two days after, counted 24 h later; for repellency against Frankliniella occidentalis: 100 μM PDJ sprayed
Experimental: Then, 100 μM PDJ solution was directly sprayed on one of the two plant individuals by use of a spraying device. On the other one of the two plant individuals, only water was sprayed similarly. This plant individual on which only water was sprayed was a control. Two days after the above treatment, 30 female adult thrips of Frankliniella occidentalis were released at a middle point between the two plant individuals. Twenty-four hours after that release of Frankliniella occidentalis, the number of thrips on each plant individual was counted so that which one of the plant individuals the thrips had moved to was found. With use of 100 μM JA solution, a similar experiment was carried out. Further, similar experiments with use of the 100 μM PDJ solution and the 100 μM JA solution were carried out on tomato (Solanum lycopersicum) three weeks after seeding.
(§1) Then, 100 μM PDJ solution was sprayed on an entire aerial part of only one of the two plant individuals by use of a spraying device. On the other one of the two plant individuals, only water was sprayed by a similar method. This plant individual on which only water was sprayed was a control. Two days after the above spraying, 30 female adult thrips of Frankliniella occidentalis were released at a middle point between the two plant individuals. Twenty-four hours after that release of Frankliniella occidentalis, the number of thrips on each plant individual was counted so that which one of the plant individuals the thrips had moved to was found.
Further, the target plant was changed to crown daisy (Glebionis coronaria) of the family Asteraceae, and repellency against thrips was studied similarly.

Thrips tabaci Lindeman = test: Two-plant choice test of thrips repellency after spraying (Example 3); conditions: 100 μM PDJ sprayed, thrips released two days after, counted 24 h later
Experimental: Then, 100 μM PDJ was sprayed on an entire aerial part of only one of the two plant individuals by use of a spraying device. On the other one of the two plant individuals, only water was sprayed by a similar method. This plant individual on which only water was sprayed was a control. Two days after the above spraying, 30 female adult thrips of Thrips tabaci Lindeman were released at a middle point between the two plant individuals. Twenty-four hours later, the number of Thrips tabaci Lindeman on each plant individual was counted so that which one of the plant individuals the thrips had moved to was found. As a result, with regard to the green pepper (bell pepper) (Capsicum annuum L. ‘grossum’), an attachment rate of Thrips tabaci Lindeman was approximately 40% relative to that of the control. Meanwhile, with regard to cabbage (Brassica oleracea var. capitata), an attachment rate of Thrips tabaci Lindeman was approximately 40% relative to that of the control.

[2] = test system: Frankliniella occidentalis; test: Spraying time relative to development of fourth true leaf of tomato, thrips count (Examples 6 and 7); conditions: counted six days after release
Experimental: Then, 100 μM PDJ solution was sprayed on an entire aerial part of only one of the two plant individuals by use of a spraying device. On the other one of the two plant individuals, only water was sprayed by a similar method. This plant individual on which only water was sprayed was a control. The above spraying was carried out at time points 3 days, 7 days, 10 days and 15 days after the start of development of the fourth true leaf. Four days after the above spraying, 30 female adult thrips of Frankliniella occidentalis were released at a middle point between the two plant individuals. Six days after that release of Frankliniella occidentalis, the number of thrips on the fourth true leaf was counted. […] The number of thrips attached to the fourth true leaf was approximately 5% of that of the control in the case of the spraying carried out at the time point 3 days after the start of the development of the fourth true leaf, approximately 10% of that of the control in the case of the spraying carried out at the time point 7 days after the start of the development, approximately 40% of that of the control in the case of the spraying carried out at the time point 10 days after the start of the development, and approximately 50% of that of the control in the case of the spraying carried out at the time point 15 days after the start of the development. In this way, it was clarified that in a case where the spraying was carried out within 7 days from the start of development of a new leaf of a plant, repellency against thrips given to the plant is higher than that in a case where spraying is carried out more than 7 days after the start of the development. In a greenhouse whose room temperature was kept in a range of 20° C. to 25° C., two plant individuals of tomato (Solanum lycopersicum) (approximately 1 to 1.5 months after seeding), which had developed 3 true leaves, were placed apart from each other such that a distance of […] was provided and kept between these plant individuals. Then, 100 μM PDJ solution was sprayed on an entire aerial part of only one of the two plant individuals by use of a spraying device. At this time point, the fourth true leaf was not yet developed. On the other one of the two plant individuals, only water was sprayed by a similar method. This plant individual on which only water was sprayed was a control. Four days after the above spraying, 30 female adult thrips of Frankliniella occidentalis were released at a middle point between the two plant individuals. Six days after that release of Frankliniella occidentalis, the number of thrips on the fourth true leaf was counted. […] The number of thrips attached to the fourth true leaf was approximately 100% of that of the control.

Frankliniella intonsa = test: Two-plant choice test of thrips repellency after spraying (Example 4); conditions: 100 μM PDJ sprayed, thrips released two days after, counted 24 h later
Experimental: as §1, with “intonsa” for “occidentalis”, “intonsa,” for “occidentalis,”

[3] = test system: Frankliniella occidentalis; test: Repeated spraying on tomato, thrips count on third and higher-order true leaves (Example 5); conditions: counted forty days after release
Experimental: Then, 100 μM PDJ solution was directly prayed on an entire aerial part of only one of the two plant individuals by use of a spraying device. The above spraying was carried out 3 times, 4 times or 5 times at intervals of 5 to 7 days. On the other one of the two plant individuals, only water was sprayed by a similar method. This plant individual on which only water was sprayed was a control. Four days after the last spraying, 30 female adult thrips of Frankliniella occidentalis were released at a middle point between the two plant individuals. Forty days after that release of Frankliniella occidentalis, the number of thrips on the third and higher-order true leaves was counted. […] In the case of the plant individual on which the PDJ solution was sprayed 3 times, the total number of thrips attached to the third and higher-order true leaves was approximately 20% relative to that of the control. In the case of the plant individual on which the PDJ solution was sprayed 4 times or 5 times, the total number of thrips attached to the third and higher-order true leaves was 0% relative to that of the control. In this way, it was clarified that in a case where spraying is carried out 4 times or 5 times at intervals of 5 days to 7 days, repellency against thrips is higher than that in a case where spraying is carried out 3 times.

[4] = 100 μM PDJ sprayed when fourth true leaf was not yet developed (Example 7)

For `CC/C=C\CC1C(=O)CCC1CC(=O)OC` (stereo not shown) [JA, methyl jasmonate, reference compound], the “repellency against thrips (number of thrips on plant vs water control)” value ([1]; Arabidopsis thaliana) was “can give repellency against thrips” and the “repellency against thrips (number of thrips on plant vs water control)” value ([1]; tomato (Example 1)) was “can give repellency against thrips”.
In the case of prohydrojasmon [PDJ], the “attachment rate of Thrips tabaci Lindeman relative to that of the control” value (Thrips tabaci Lindeman; cabbage) is reported as “approximately 40%”, the “attachment rate of Thrips tabaci Lindeman relative to that of the control” value (Thrips tabaci Lindeman; green pepper) is reported as “approximately 40%” and the “number of thrips attached to the fourth true leaf, of that of the control” value (from here on “number … of that of the control”) ([2]; 100 μM PDJ sprayed 3 days after start of development of fourth true leaf) is reported as “approximately 5%”. For the same molecule, the “number … of that of the control” value ([2]; 100 μM PDJ sprayed 7 days after start of development of fourth true leaf) was “approximately 10%”, the “number … of that of the control” value ([2]; 100 μM PDJ sprayed 10 days after start of development of fourth true leaf) was “approximately 40%” and the “number … of that of the control” value ([2]; 100 μM PDJ sprayed 15 days after start of development of fourth true leaf) was “approximately 50%”. For the same molecule, the “number … of that of the control” value [2, 4] was “approximately 100%”, the “total number of thrips attached to the first to third true leaves vs control” value [2, 4] was “much smaller than that of the control” and the “repellency against thrips (number of thrips on plant vs water control)” value ([1]; Arabidopsis thaliana) was “can give repellency against thrips”. The “repellency against Frankliniella occidentalis” value ([1]; cabbage) was “sufficient repellency”, the “repellency against Frankliniella occidentalis” value ([1]; chrysanthemum) was “sufficient repellency” and the repellency against thrips ([1]; crown daisy (Glebionis coronaria), studied similarly to Example 2) was “repellency against thrips is given”. For the same molecule, the “repellency against Frankliniella occidentalis” value ([1]; cucumber) was “sufficient repellency”, the “repellency against Frankliniella occidentalis” value ([1]; green pepper) was “sufficient repellency” and the “repellency against Frankliniella occidentalis” value ([1]; strawberry) was “sufficient repellency”. For the same molecule, the “repellency against thrips (number of thrips on plant vs water control)” value ([1]; tomato (Example 1)) was “can give repellency against thrips”, the “repellency against Frankliniella occidentalis” value ([1]; tomato (Example 2)) was “sufficient repellency” and the “repellency against Frankliniella intonsa” value (Frankliniella intonsa; cabbage) was “sufficient repellency”. The “repellency against Frankliniella intonsa” value (Frankliniella intonsa; chrysanthemum) was “sufficient repellency”, the “repellency against Frankliniella intonsa” value (Frankliniella intonsa; cucumber) was “sufficient repellency” and the “repellency against Frankliniella intonsa” value (Frankliniella intonsa; green pepper) was “sufficient repellency”. For the same molecule, the “repellency against Frankliniella intonsa” value (Frankliniella intonsa; strawberry) was “sufficient repellency”, the “repellency against Frankliniella intonsa” value (Frankliniella intonsa; tomato) was “sufficient repellency” and the “total number of thrips attached to the third and higher-order true leaves relative to that of the control” value ([3]; 100 μM PDJ sprayed 3 times at intervals of 5 to 7 days) was “approximately 20%”. The “total number of thrips attached to the third and higher-order true leaves relative to that of the control” value ([3]; 100 μM PDJ sprayed 4 times at intervals of 5 to 7 days) was 0% and the “total number of thrips attached to the third and higher-order true leaves relative to that of the control” value ([3]; 100 μM PDJ sprayed 5 times at intervals of 5 to 7 days) was 0%.
